Earlier results in patent publication US6660871B2, “Synthesis of 4H-chromene derivatives” (Thomas Jefferson Unversity, priority 2001, dated 2003).

System: tumor cells

CCOC(=O)C1=C(N)Oc2ccc(Br)cc2C1C(C#N)C(=O)OCC (stereo not shown) [HA14-1]
apoptosis of tumor cells: induces apoptosis of tumor cells
